Data on 14 compounds can be found in patent US20260226048A1, “MULTI-CYCLIC IRAK AND FLT3 INHIBITING COMPOUNDS AND USES THEREOF” (CHILDREN'S HOSPITAL MEDICAL CENTER, priority 2023, published 2026).

The target in one assay is T1, IRAK1 (Homo sapiens, UniProt P51617).
T1 construct: purchased Reaction Biology (RBC HotSpot)
The experiment in a line: RBC HotSpot Kinase Assay, IRAK1. The note with it: isolated kinase enzyme, 33P-ATP, P81 filter-binding. The format is biochemical. The method, boiled down:
(§1)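 Radiometric HotSpot assay of catalytic activity with isolated recombinant kinase, possibly truncated or kinase domain only. Buffer: 20 mM Hepes pH 7.5, 10 mM MgCl2, 1 mM EGTA, 0.01% Brij35, 0.02 mg/ml BSA, 0.1 mM Na3VO4, 2 mM DTT, 1% DMSO, with cofactors specific to each kinase.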

In a further assay the test system is MOLM14 D835Y cells. Kind of assay: MOLM14 D835Y cell viability assay (Cell Titer Glo). The format is cell-based. The note with it: Homo sapiens, MOLM-14, 48 h, cell viability, Cell Titer Glo, 48 hours; read-out: MOLM14 D835Y IC50. The method, boiled down: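 MOLM14 cells with FLT3 D835Y or F691L kinase-domain resistance mutations seeded at 1000 cells/well and exposed to compound for 48 h under standard incubator conditions. Viability read by CellTiter-Glo luminescence after 15 min at room temperature.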
On the technique in general: In ATP-based viability assays light output follows the ATP content of the culture.

Another assay has as its system MOLM14 F691L cells. The experiment in a line: MOLM14 F691L cell viability assay (Cell Titer Glo). The format is cell-based. The settings on record: Homo sapiens, MOLM-14; cell viability, Cell Titer Glo, 48 hours; read-out: MOLM14 F691L IC50. The method, then:
Both cell lines have activated FLT3 receptors, each of which carry additional resistance mutations in the kinase domain (D835Y and F691L, respectively).
For viability/cytotoxicity assessments, cells were seeded into 1536-well white polystyrene tissue culture-treated Greiner plates using a Multidrop Combi dispenser (ThermoFisher), in final volume 5 μL of growth media per well, at a density of 1000 cells per well. […] Plates were incubated for 48 hours at standard incubator conditions covered by a stainless steel gasketed lid to prevent evaporation. 48 hours post compound addition, 3 μL of Cell Titer Glo (Promega) were added to each well and plates were incubated at room temperature for 15 minutes with the stainless-steel lid in place. Luminescence readings were taken using a Viewlux imager (PerkinElmer) with a 2 second exposure time per plate.

A further assay concerns the target T2, IRAK4 (Homo sapiens, UniProt Q9NWZ3).
T2 sequence (Q9NWZ3 1-460): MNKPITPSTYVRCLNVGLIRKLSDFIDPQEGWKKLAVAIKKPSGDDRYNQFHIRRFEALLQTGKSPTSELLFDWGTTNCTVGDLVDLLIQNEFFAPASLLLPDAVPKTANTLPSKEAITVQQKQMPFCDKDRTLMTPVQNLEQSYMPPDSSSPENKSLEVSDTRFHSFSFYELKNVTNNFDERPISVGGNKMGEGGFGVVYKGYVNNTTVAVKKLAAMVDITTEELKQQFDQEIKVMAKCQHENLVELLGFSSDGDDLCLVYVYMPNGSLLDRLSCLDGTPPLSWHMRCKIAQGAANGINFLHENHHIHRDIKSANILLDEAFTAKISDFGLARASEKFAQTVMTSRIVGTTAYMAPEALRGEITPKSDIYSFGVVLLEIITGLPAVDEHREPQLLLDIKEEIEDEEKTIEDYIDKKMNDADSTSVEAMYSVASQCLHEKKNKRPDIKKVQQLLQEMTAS
The experiment in a line: RBC HotSpot Kinase Assay, IRAK4. The format is biochemical. The settings on record: isolated kinase enzyme, 33P-ATP, P81 filter-binding. Also on record: purchased Reaction Biology (RBC HotSpot). The method, boiled down: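 Radiometric filter-binding activity assay with isolated recombinant kinase (construct may be truncated or catalytic domain only) in 20 mM Hepes pH 7.5, 10 mM MgCl2, 1 mM EGTA, 2 mM DTT, 1% DMSO. Compound preincubated 20 min with kinase/substrate; reaction started with 33P-ATP, run 2 h at room temperature.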

Another assay has as its target T3, FLT3 (Homo sapiens, UniProt P36888).
T3 sequence (P36888 27-993): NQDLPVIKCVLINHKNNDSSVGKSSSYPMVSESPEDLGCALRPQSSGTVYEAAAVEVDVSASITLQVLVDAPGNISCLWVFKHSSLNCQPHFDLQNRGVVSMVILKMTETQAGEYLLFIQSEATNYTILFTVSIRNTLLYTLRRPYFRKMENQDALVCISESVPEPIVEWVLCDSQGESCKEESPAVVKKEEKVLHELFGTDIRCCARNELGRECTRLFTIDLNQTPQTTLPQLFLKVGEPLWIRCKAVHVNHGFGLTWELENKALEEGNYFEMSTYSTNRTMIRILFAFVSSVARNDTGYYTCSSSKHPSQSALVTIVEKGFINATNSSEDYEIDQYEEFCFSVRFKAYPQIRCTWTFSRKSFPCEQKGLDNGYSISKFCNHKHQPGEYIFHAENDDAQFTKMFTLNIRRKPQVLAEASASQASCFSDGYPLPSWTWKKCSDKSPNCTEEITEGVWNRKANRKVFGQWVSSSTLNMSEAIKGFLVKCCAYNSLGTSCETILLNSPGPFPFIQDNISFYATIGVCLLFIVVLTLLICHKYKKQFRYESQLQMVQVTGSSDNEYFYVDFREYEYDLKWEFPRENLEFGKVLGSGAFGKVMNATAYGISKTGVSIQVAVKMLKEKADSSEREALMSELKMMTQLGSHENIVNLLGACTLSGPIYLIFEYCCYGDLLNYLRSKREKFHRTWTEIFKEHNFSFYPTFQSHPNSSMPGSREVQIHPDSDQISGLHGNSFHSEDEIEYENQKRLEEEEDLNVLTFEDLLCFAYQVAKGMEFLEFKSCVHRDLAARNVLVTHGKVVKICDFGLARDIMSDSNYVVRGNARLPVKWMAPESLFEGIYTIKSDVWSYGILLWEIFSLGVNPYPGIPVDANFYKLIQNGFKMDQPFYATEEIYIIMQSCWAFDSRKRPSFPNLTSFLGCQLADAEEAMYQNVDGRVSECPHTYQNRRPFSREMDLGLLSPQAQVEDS
The experiment in a line: RBC HotSpot Kinase Assay, FLT3. The note with it: isolated kinase enzyme, 33P-ATP, P81 filter-binding. Also on record: purchased Reaction Biology (RBC HotSpot). The format is biochemical. The essentials:
as §1

pIC50: −log10 of the molar value.

T1 sequence (P51617 whole entry): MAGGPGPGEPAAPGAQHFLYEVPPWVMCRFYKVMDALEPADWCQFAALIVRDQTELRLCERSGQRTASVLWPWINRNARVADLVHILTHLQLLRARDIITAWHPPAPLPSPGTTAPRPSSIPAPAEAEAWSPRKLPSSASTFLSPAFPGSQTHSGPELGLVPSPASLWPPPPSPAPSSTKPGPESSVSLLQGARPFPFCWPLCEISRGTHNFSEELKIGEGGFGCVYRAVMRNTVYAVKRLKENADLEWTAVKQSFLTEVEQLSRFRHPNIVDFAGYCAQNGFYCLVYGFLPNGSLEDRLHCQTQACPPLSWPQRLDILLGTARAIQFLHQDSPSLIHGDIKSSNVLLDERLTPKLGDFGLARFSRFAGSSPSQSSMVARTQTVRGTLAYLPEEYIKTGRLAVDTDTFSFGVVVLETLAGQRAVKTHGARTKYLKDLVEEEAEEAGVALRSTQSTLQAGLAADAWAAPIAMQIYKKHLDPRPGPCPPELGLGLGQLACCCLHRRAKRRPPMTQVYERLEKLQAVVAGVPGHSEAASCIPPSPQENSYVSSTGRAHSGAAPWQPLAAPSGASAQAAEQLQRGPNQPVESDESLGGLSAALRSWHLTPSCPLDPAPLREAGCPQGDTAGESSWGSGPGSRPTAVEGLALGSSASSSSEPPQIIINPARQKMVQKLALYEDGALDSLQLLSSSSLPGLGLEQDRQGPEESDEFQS

With `COc1cc2ncc(-c3ccnc(N[C@H]4CNC[C@@H]4F)n3)n2nc1C1CC2(CCC2)C1` [Compound 75a, N-((3S,4S)-4-fluoropyrrolidin-3-yl)-4-(7-methoxy-6-(spiro[3.3]heptan-2-yl)imidazo[1,2-b]pyridazin-3-yl)pyrimidin-2-amine], the pIC50 is 6.99 at IRAK1; 7.20 in the assay with MOLM14 D835Y cells; 6.20 in the assay with MOLM14 F691L cells; 8.22 on IRAK4; > 9.30 at FLT3.
Regarding `COc1cc2ncc(-c3ccnc(N[C@@H]4CCCNC4)n3)n2nc1C1CC2(CCC2)C1` [Compound 76a, (R)-4-(7-methoxy-6-(spiro[3.3]heptan-2-yl)imidazo[1,2-b]pyridazin-3-yl)-N-(piperidin-3-yl)pyrimidin-2-amine], the pIC50 is 7.43 on IRAK1; 7.00 in the assay with MOLM14 D835Y cells; 5.95 in the assay with MOLM14 F691L cells; 7.68 on IRAK4; > 9.30 at FLT3.
Turning to `COc1cc2ncc(-c3ccnc(N[C@H]4CNC[C@@H]4F)n3)n2nc1C1CCC1` [Compound 77a, 4-(6-cyclobutyl-7-methoxyimidazo[1,2-b]pyridazin-3-yl)-N-((3S,4S)-4-fluoropyrrolidin-3-yl)pyrimidin-2-amine], the negative-log IC50 (pIC50) is 7.92 on IRAK1; 7.80 in the assay on MOLM14 D835Y cells; 6.85 in the assay on MOLM14 F691L cells; 9.00 on IRAK4; > 9.30 at FLT3.
Take `COc1cc2ncc(-c3ccnc(N[C@H]4CNC[C@@H]4F)n3)n2nc1C1CC(C)(C)C1` [Compound 80a, 4-(6-(3,3-dimethylcyclobutyl)-7-methoxyimidazo[1,2-b]pyridazin-3-yl)-N-((3S,4S)-4-fluoropyrrolidin-3-yl)pyrimidin-2-amine]: the pIC50 at IRAK1 was 6.85; in the assay with MOLM14 D835Y cells it was 7.05; with MOLM14 F691L cells it was 6.10; at IRAK4 it was 7.77; on FLT3 it was > 9.30.
The matching figures for `COc1cc2ncc(-c3ccnc(N[C@@H]4CCCNC4)n3)n2nc1C1CC(C)(C)C1` [Compound 81a]: 7.31, 7.05, 5.90, 7.26 and > 9.30.
On the same counts, the results for `COc1cc2ncc(-c3ccnc(N[C@H]4CNC[C@@H]4F)n3)n2nc1C1CCCC1` [Compound 83a, 4-(6-cyclopentyl-7-methoxyimidazo[1,2-b]pyridazin-3-yl)-N-((3S,4S)-4-fluoropyrrolidin-3-yl)pyrimidin-2-amine] are 8.10, 7.80, 6.95, 9.22 and > 9.30.
On the same counts, the results for `COc1cc2ncc(-c3ccnc(N[C@@H]4CCCNC4)n3)n2nc1C1CCCC1` [Compound 84a, (R)-4-(6-cyclopentyl-7-methoxyimidazo[1,2-b]pyridazin-3-yl)-N-(piperidin-3-yl)pyrimidin-2-amine] are 7.74, 7.85, 6.95, 8.70 and > 9.30.
Take `COc1cc2ncc(-c3ccnc(N[C@H]4CNCC[C@@H]4F)n3)n2nc1C1CCCC1` [Compound 85a, 4-(6-cyclopentyl-7-methoxyimidazo[1,2-b]pyridazin-3-yl)-N-((3S,4S)-4-fluoropiperidin-3-yl)pyrimidin-2-amine]: the pIC50 on IRAK1 was 8.15; in the assay with MOLM14 D835Y cells it was 7.96; with MOLM14 F691L cells it was 7.05; at IRAK4, 9.00; at FLT3 it was > 9.30.
Turning to `COc1cc2ncc(-c3ccnc(N[C@H]4CNC[C@@H]4F)n3)n2nc1C1CCCCC1` [Compound 86a, 4-(6-cyclohexyl-7-methoxyimidazo[1,2-b]pyridazin-3-yl)-N-((3S,4S)-4-fluoropyrrolidin-3-yl)pyrimidin-2-amine], the pIC50 is 7.80 on IRAK1; 7.74 in the assay on MOLM14 D835Y cells; 6.85 in the assay with MOLM14 F691L cells; 9.00 on IRAK4; > 9.30 at FLT3.
On the same counts, the results for `COc1cc2ncc(-c3ccnc(N[C@@H]4CCCNC4)n3)n2nc1C1CCCCC1` [Compound 87a, (R)-4-(6-cyclohexyl-7-methoxyimidazo[1,2-b]pyridazin-3-yl)-N-(piperidin-3-yl)pyrimidin-2-amine] are 7.59, 7.55, 6.60, 8.52 and > 9.30.
In the case of `COc1cc2ncc(-c3ccnc(N[C@H]4CNCC[C@@H]4F)n3)n2nc1C1CCCCC1` [Compound 88a, 4-(6-cyclohexyl-7-methoxyimidazo[1,2-b]pyridazin-3-yl)-N-((3S,4S)-4-fluoropiperidin-3-yl)pyrimidin-2-amine], the pIC50 at IRAK1 is 7.89; in the assay on MOLM14 D835Y cells it was 7.60; in the assay on MOLM14 F691L cells it was 6.75; on IRAK4, 8.40; at FLT3 it was > 9.30.
The matching figures for `COc1cc2ncc(-c3ccnc(N[C@H]4CNC[C@@H]4F)n3)n2nc1C12CC(C1)C2` [Compound 89a, 4-(6-(bicyclo[1.1.1]pentan-1-yl)-7-methoxyimidazo[1,2-b]pyridazin-3-yl)-N-((3S,4S)-4-fluoropyrrolidin-3-yl)pyrimidin-2-amine]: 7.36, 7.74, 6.80, 8.40 and > 9.30.
Regarding `COc1cc2ncc(-c3ccnc(N[C@@H]4CCCNC4)n3)n2nc1C12CC(C1)C2` [Compound 90a, (R)-4-(6-(bicyclo[1.1.1]pentan-1-yl)-7-methoxyimidazo[1,2-b]pyridazin-3-yl)-N-(piperidin-3-yl)pyrimidin-2-amine], the pIC50 on IRAK1 is 7.07; in the assay with MOLM14 D835Y cells, 7.30; with MOLM14 F691L cells, 6.35; at IRAK4, 8.05; at FLT3, > 9.30.
On the same counts, the results for `COc1cc2ncc(-c3ccnc(N[C@H]4CNCC[C@@H]4F)n3)n2nc1C12CC(C1)C2` [Compound 91a, 4-(6-(bicyclo[1.1.1]pentan-1-yl)-7-methoxyimidazo[1,2-b]pyridazin-3-yl)-N-((3S,4S)-4-fluoropiperidin-3-yl)pyrimidin-2-amine] are 7.35, 7.55, 6.55, 8.30 and > 9.30.

By pIC50 is commonly meant the negative decadic logarithm of the IC50, by convention in mol/L.
